According to US7361687B2, “Arylsulphonamide derivatives and methods of preparing” (Laboratoires Fournier SA, priority 2002, dated 2008):

test system: formalin-induced pain response in mice; test: formalin-induced pain response test in mice; assay type: in vivo; settings: formalin 0.92% in hind paw, licking time 15 to 30 min after injection, dose 1 mg/kg i.v.
Procedure: The compounds of the present invention were evaluated for their analgesic properties in the formalin-induced pain response test in mice (Shibata, M., Ohkubo, T., Takahashi, H. & R. Inoki. Modified formalin test: characteristic biphasic pain response. Pain, 38, 347-352). To summarize, formalin (0.92% in saline solution) is injected into the hind paw and the paw licking time, which reflects pain intensity, is recorded from 0 to 5 min (1st phase) and from 15 to 30 min (2nd phase) after injection.

Question: Which “% inhibition of the 2nd paw licking phase” value (“% inhibition” below) does the source give for “N-[[4-(4,5-dihydro-1H-imidazol-2-yl)phenyl]methyl]-2-[2-[[(4-methoxy-2,6-dimethylphenyl)sulphonyl]methylamino]ethoxy]-N-methyl-acetamide, trifluoroacetate [Example 49]” here?
Answer: 40%

same assay, conditions: formalin 0.92% in hind paw, licking time 15 to 30 min after injection, dose 10 mg/kg i.p.

Question: With Cc1c(Cl)ccc(S(=O)(=O)N(CCCCC(=O)N(C)Cc2ccc(C3=NCCN3)cc2)CC(N)=O)c1Cl.O=C(O)C(F)(F)F [Example 19, 5-[(2-amino-2-oxoethyl)[(2,4-dichloro-3-methylphenyl)sulphonyl]-amino]-N-[[4-(4,5-dihydro-1H-imidazol-2-yl)phenyl]methyl]-N-methyl-pentanamide, trifluoroacetate] as the compound, how does the “% inhibition” value read?
Answer: 42%

same assay, conditions: formalin 0.92% in hind paw, licking time 15 to 30 min after injection, dose 100 mg/kg p.o.

Question: For “5-[[(2,3-dichlorophenyl)sulphonyl]methylamino]-N-[[4-(4,5-dihydro-1H-imidazol-2-yl)phenyl]methyl]-N-methyl-pentanamide, trifluoroacetate [Example 9]”, which “% inhibition” value is on record?
Answer: 60%

Question: For CN(Cc1ccc(C2=NCCN2)cc1)C(=O)CCCCN(C1CC1)S(=O)(=O)c1cccc(Cl)c1Cl.O=C(O)C(F)(F)F [Example 16, 5-[cyclopropyl[(2,3-dichlorophenyl)sulphonyl]amino]-N-[[4-(4,5-dihydro-1H-imidazol-2-yl)phenyl]methyl]-N-methyl-pentanamide, trifluoroacetate], which “% inhibition” value is on record?
Answer: 80%

test system: not given; test: not given; settings: not given

Question: For CN(Cc1ccc(C2=NCCN2)cc1)C(=O)COCCN(C1CC1)S(=O)(=O)c1cccc(Cl)c1Cl.O=C(O)C(F)(F)F, which melting point is on record?
Answer: 65 °C

Question: For CN(Cc1ccc(C2=NCCN2)cc1)C(=O)CCN(CC(F)(F)F)S(=O)(=O)c1cccc(Cl)c1Cl.O=C(O)C(F)(F)F, which melting point is on record?
Answer: 88 °C

Question: For CN(Cc1ccc(C2=NCCN2)cc1)C(=O)/C=C/CN(C)S(=O)(=O)c1cccc2ccccc12.O=C(O)C(F)(F)F, which melting point is on record?
Answer: 77 °C

Question: Which melting point does the source give for CC(C)N(CCCCC(=O)N(C)Cc1ccc(C2=NCCN2)cc1)S(=O)(=O)c1c(Cl)cccc1Cl.O=C(O)C(F)(F)F here?
Answer: 60 °C

Question: With Cc1c(Cl)ccc(S(=O)(=O)NC/C=C/C(=O)N(C)Cc2ccc(C3=NCCN3)cc2)c1Cl.O=C(O)C(F)(F)F as the compound, how does the melting point read?
Answer: 99 °C

Question: For CN(Cc1ccc(C2=NCCN2)cc1)C(=O)COCCN(C)S(=O)(=O)c1ccccc1C(F)(F)F.O=C(O)C(F)(F)F, which melting point is on record?
Answer: 60 °C

Question: For CN(Cc1ccc(C2=NCCN2)cc1)C(=O)CCN(C1CC1)S(=O)(=O)c1c(Cl)cccc1Cl.O=C(O)C(F)(F)F, which melting point is on record?
Answer: 65 °C

Question: For CN(Cc1ccc(C2=NCCN2)cc1)C(=O)COCCN(C)S(=O)(=O)c1c(Cl)cc(C(F)(F)F)cc1Cl.O=C(O)C(F)(F)F, which melting point is on record?
Answer: 60 °C

Question: With CN(Cc1ccc(C2=NCCN2)cc1)C(=O)CCN(C1CC1)S(=O)(=O)c1cccc(Cl)c1Cl.O=C(O)C(F)(F)F as the compound, how does the melting point read?
Answer: 80 °C

Question: For CN(Cc1ccc(C2=NCCN2)cc1)C(=O)CCCCN(C1CC1)S(=O)(=O)c1ccccc1Cl.O=C(O)C(F)(F)F, which melting point is on record?
Answer: 55 °C

Question: Which melting point does the source give for Cc1c(Cl)ccc(S(=O)(=O)N(CCCCC(=O)N(C)Cc2ccc(C3=NCCN3)cc2)CCC(N)=O)c1Cl.O=C(O)C(F)(F)F here?
Answer: 85 °C

Question: For CC(C)N(CCC(=O)N(C)Cc1ccc(C2=NCCN2)cc1)S(=O)(=O)c1c(Cl)cccc1Cl.O=C(O)C(F)(F)F, which melting point is on record?
Answer: 75 °C

Question: For CN(Cc1ccc(C2=NCCN2)cc1)C(=O)/C=C/CN(C)S(=O)(=O)c1ccc(OC(F)(F)F)cc1Cl.O=C(O)C(F)(F)F, which melting point is on record?
Answer: 68 °C

Question: Which melting point does the source give for Cc1c(Cl)ccc(S(=O)(=O)N(CCOCC(=O)N(C)Cc2ccc(C3=NCCN3)cc2)CCc2ccccc2)c1Cl.O=C(O)C(F)(F)F here?
Answer: 85 °C

Question: For CN(Cc1ccc(C2=NCCN2)cc1)C(=O)CCCCN(C1CC1)S(=O)(=O)c1cccc(Cl)c1Cl.O=C(O)C(F)(F)F [Example 16, 5-[cyclopropyl[(2,3-dichlorophenyl)sulphonyl]amino]-N-[[4-(4,5-dihydro-1H-imidazol-2-yl)phenyl]methyl]-N-methyl-pentanamide, trifluoroacetate], which melting point is on record?
Answer: 70 °C

Question: For CN(Cc1ccc(C2=NCCN2)cc1)C(=O)COCCN(C1CC1)S(=O)(=O)c1ccccc1Cl.O=C(O)C(F)(F)F, which melting point is on record?
Answer: 52 °C

Question: For CN(Cc1ccc(C2=NCCN2)cc1)C(=O)COCCN(C1CC1)S(=O)(=O)c1c(Cl)cccc1Cl.O=C(O)C(F)(F)F, which melting point is on record?
Answer: 60 °C

Question: For Cc1c(Cl)ccc(S(=O)(=O)N(CCCCC(=O)N(C)Cc2ccc(C3=NCCN3)cc2)CC(N)=O)c1Cl.O=C(O)C(F)(F)F [Example 19, 5-[(2-amino-2-oxoethyl)[(2,4-dichloro-3-methylphenyl)sulphonyl]-amino]-N-[[4-(4,5-dihydro-1H-imidazol-2-yl)phenyl]methyl]-N-methyl-pentanamide, trifluoroacetate], which melting point is on record?
Answer: 90 °C

Question: For CN(Cc1ccc(C2=NCCN2)cc1)C(=O)COCCN(C)S(=O)(=O)c1cccc2ccccc12.O=C(O)C(F)(F)F, which melting point is on record?
Answer: 66 °C

Question: Which melting point does the source give for CN(Cc1ccc(C2=NCCN2)cc1)C(=O)COCCN(C)S(=O)(=O)c1ccc(Cl)c(Cl)c1Cl.O=C(O)C(F)(F)F here?
Answer: 70 °C

Question: For CC(C)N(CCC(=O)N(C)Cc1ccc(C2=NCCN2)cc1)S(=O)(=O)c1cccc(Cl)c1Cl.O=C(O)C(F)(F)F, which melting point is on record?
Answer: 92 °C

Question: For CN(Cc1ccc(C2=NCCN2)cc1)C(=O)COCCN(C)S(=O)(=O)c1cccc(C(F)(F)F)c1.O=C(O)C(F)(F)F, which melting point is on record?
Answer: 60 °C

Question: For CN(Cc1ccc(C2=NCCN2)cc1)C(=O)CCN(CC(F)(F)F)S(=O)(=O)c1c(Cl)cccc1Cl.O=C(O)C(F)(F)F, which melting point is on record?
Answer: 80 °C

Question: Which melting point does the source give for CN(Cc1ccc(C2=NCCN2)cc1)C(=O)/C=C/CN(C)S(=O)(=O)c1ccccc1C(F)(F)F.O=C(O)C(F)(F)F here?
Answer: 50 °C
